The results in this text go back to patent US20200331925A1, “HETEROCYCLIC COMPOUNDS FOR THE TREATMENT OF ABNORMAL CELLULAR PROLIFERATION” (G1 Therapeutics, Inc., priority 2018, published 2020).

What all share (type): biochemical
Assay [1] addresses CDK1/Cyclin B1 (Homo sapiens, UniProt P06493). Briefly: CDK1/Cyclin B1 kinase assay (Nanosyn, Caliper microfluidic). To be noted: 12-point dose-response, ATP at Km (40 μM), 3 hr. The essentials: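 Mobility-shift microfluidic kinase assay, 12-point dose-response in singlicate. Conditions: 0.08 nM enzyme, 40 μM ATP (Km), 1 μM peptide substrate, 3 hr incubation; staurosporine as reference.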

In assay [2] the target is CDK2/Cyclin A (Homo sapiens, UniProt P24941). Briefly: CDK2/Cyclin A kinase assay (Nanosyn, Caliper microfluidic). The settings on record: 12-point dose-response, ATP at Km (50 μM), 3 hr. An outline of the steps:
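Caliper microfluidic mobility-shift read-out; 0.1 nM enzyme, 50 μM ATP (Km), 1 μM peptide substrate, 3 hr incubation. 12-point dose-response in singlicate; staurosporine as reference.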

Assay [3] concerns the target CDK2/Cyclin E (Homo sapiens, UniProt P24941). The assay is described as follows: CDK2/Cyclin E kinase assay (Nanosyn, Caliper microfluidic). The settings on record: 12-point dose-response, ATP at Km (100 μM), 3 hr. The essentials:
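Caliper microfluidic mobility-shift readout of phosphorylation of 1 μM substrate peptide by 0.15 nM enzyme at 100 μM ATP (stated as Km), 3 hr incubation. 12-point dose-response in singlicate, staurosporine as reference.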

The target of assay [4] is CDK3/Cyclin E (Homo sapiens, UniProt Q00526). Briefly: CDK3/Cyclin E kinase assay (Nanosyn, Caliper microfluidic). To be noted: 12-point dose-response, ATP at Km (400 μM), 3 hr. The essentials: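 Caliper microfluidic mobility-shift read-out with 1 nM enzyme, 400 μM ATP (stated as Km) and 1 μM peptide substrate, 3 hr incubation. Compounds run as 12-point dose-response in singlicate.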

The target of assay [5] is CDK4/Cyclin D1 (Homo sapiens, UniProt P11802). Briefly: CDK4/Cyclin D1 kinase assay (Nanosyn, Caliper microfluidic). The settings on record: 12-point dose-response, ATP at Km (200 μM), 3 hr; Table 4. The essentials:
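Caliper microfluidic mobility-shift read-out, 12-point dose-response in singlicate. 1 nM enzyme, 200 μM ATP (Km), 1 μM peptide substrate, 3 hr incubation; staurosporine as reference.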

Assay [6] has as its target CDK5/p35 (Homo sapiens, UniProt Q00535). The assay is described as follows: CDK5/p35 kinase assay (Nanosyn, Caliper microfluidic). To be noted: 12-point dose-response, ATP at Km (20 μM), 3 hr. An outline of the steps: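 Microfluidic mobility-shift kinase assay with 0.05 nM CDK5/p35, 20 μM ATP (Km) and 1 μM peptide substrate, 3 hr incubation. Compounds tested as 12-point dose–response in singlicate; staurosporine as reference.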

In assay [7] the target is CDK5/p25 (Homo sapiens, UniProt Q00535). Briefly: CDK5/p25 kinase assay (Nanosyn, Caliper microfluidic). The settings on record: 12-point dose-response, ATP at Km (20 μM), 3 hr. The essentials: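 Caliper microfluidic mobility-shift assay, 12-point dose-response in singlicate. CDK5/p25 at 0.1 nM with 20 μM ATP (Km) and 1 μM peptide substrate. Incubation 3 hr.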
Assay [8] concerns the target CDK6/Cyclin D3 (Homo sapiens, UniProt Q00534). The assay is described as follows: CDK6/Cyclin D3 kinase assay (Nanosyn, Caliper microfluidic). To be noted: 12-point dose-response, ATP at Km (300 μM), 3 hr. An outline of the steps:
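Caliper microfluidic assay with 2 nM enzyme, 300 μM ATP and 1 μM phosphoacceptor peptide, incubated for 3 hr. Compounds were run as 12-point dose-response curves in singlicate.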

Assay [9] addresses CDK7/Cyclin H (Homo sapiens, UniProt P50613). The assay is described as follows: CDK7/Cyclin H kinase assay (Nanosyn, Caliper microfluidic). The settings on record: 12-point dose-response, ATP at Km (50 μM), 17 hr. The essentials: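 Caliper microfluidic mobility-shift assay with 10 nM CDK7/Cyclin H, 50 μM ATP (Km) and 1 μM peptide substrate, incubated 17 hr. Compounds run in 12-point dose-response, singlicate.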

In assay [10] the target is CDK9/Cyclin T (Homo sapiens, UniProt P50750). Briefly: CDK9/Cyclin T kinase assay (Nanosyn, Caliper microfluidic). The settings on record: 12-point dose-response, ATP at Km (10 μM), 17 hr; Table 5. An outline of the steps: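 Caliper microfluidic mobility-shift read-out, 12-point dose-response in singlicate at ATP Km with 1 μM peptide substrate; staurosporine reference.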
Chain of CDK9/Cyclin T (P50750 whole entry): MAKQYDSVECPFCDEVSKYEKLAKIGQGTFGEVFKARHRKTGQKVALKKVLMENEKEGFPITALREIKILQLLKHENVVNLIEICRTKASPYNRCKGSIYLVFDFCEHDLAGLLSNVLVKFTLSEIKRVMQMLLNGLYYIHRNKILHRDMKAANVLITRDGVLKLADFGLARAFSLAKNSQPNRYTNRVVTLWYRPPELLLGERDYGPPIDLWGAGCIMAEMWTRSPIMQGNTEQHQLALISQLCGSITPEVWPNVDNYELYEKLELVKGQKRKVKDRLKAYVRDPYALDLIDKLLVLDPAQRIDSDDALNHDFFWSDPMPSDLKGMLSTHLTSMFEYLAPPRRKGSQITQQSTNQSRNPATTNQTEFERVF
Chain of CDK9/Cyclin T (O60563 whole entry partner): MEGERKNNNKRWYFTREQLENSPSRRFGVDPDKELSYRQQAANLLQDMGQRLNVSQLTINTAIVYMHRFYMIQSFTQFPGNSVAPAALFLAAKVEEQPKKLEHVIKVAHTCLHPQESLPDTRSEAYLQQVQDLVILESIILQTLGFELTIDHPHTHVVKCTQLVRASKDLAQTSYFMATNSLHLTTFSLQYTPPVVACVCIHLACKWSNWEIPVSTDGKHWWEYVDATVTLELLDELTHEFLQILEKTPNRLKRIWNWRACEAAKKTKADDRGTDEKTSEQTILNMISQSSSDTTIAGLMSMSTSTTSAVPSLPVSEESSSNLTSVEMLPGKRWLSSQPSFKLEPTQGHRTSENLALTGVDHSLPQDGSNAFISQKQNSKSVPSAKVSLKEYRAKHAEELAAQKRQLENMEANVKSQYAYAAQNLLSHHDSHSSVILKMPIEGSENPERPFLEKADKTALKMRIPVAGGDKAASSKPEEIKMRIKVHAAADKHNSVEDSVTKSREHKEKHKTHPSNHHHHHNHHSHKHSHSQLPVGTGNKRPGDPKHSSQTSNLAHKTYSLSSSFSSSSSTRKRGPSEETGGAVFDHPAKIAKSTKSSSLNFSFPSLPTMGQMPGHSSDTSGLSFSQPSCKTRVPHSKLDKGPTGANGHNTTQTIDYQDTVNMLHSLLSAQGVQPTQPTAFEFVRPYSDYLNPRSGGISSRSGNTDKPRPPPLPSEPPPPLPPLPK

Chain of CDK7/Cyclin H (P50613 whole entry): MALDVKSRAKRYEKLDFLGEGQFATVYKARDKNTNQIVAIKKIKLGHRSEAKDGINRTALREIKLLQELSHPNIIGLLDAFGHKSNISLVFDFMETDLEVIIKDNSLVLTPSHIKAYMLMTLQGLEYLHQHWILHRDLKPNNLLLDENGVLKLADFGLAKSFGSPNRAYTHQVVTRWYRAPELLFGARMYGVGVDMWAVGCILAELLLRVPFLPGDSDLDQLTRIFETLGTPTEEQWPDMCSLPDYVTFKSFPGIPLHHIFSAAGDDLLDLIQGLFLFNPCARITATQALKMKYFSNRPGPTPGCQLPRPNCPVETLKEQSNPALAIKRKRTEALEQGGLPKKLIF
Chain of CDK7/Cyclin H (P51946 whole entry partner): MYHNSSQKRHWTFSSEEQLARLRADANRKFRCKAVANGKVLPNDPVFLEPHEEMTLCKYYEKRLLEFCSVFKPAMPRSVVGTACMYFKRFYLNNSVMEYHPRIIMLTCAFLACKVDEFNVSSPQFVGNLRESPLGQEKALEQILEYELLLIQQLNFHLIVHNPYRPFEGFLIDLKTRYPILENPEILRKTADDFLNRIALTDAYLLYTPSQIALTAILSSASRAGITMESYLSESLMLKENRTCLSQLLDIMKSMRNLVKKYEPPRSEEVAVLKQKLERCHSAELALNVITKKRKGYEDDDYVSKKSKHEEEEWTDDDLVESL
Chain of CDK7/Cyclin H (P51948 whole entry partner): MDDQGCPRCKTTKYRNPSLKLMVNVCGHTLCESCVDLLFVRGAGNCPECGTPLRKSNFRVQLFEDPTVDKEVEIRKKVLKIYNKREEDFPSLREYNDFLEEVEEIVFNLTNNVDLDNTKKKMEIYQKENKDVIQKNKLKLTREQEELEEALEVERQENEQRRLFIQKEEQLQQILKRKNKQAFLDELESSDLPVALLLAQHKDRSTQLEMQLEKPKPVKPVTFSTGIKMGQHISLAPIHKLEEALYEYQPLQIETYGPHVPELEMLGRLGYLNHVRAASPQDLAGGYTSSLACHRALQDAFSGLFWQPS
Chain of CDK6/Cyclin D3 (Q00534 whole entry): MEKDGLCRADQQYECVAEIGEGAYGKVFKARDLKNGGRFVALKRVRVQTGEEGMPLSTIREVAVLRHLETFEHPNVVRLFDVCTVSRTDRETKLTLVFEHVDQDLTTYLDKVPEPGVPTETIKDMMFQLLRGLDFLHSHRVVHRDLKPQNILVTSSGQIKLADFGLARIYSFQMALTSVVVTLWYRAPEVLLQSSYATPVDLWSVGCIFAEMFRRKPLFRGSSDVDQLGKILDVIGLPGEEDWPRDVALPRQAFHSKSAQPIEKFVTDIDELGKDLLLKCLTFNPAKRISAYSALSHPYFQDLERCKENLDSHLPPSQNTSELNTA
Chain of CDK6/Cyclin D3 (P30281 whole entry partner): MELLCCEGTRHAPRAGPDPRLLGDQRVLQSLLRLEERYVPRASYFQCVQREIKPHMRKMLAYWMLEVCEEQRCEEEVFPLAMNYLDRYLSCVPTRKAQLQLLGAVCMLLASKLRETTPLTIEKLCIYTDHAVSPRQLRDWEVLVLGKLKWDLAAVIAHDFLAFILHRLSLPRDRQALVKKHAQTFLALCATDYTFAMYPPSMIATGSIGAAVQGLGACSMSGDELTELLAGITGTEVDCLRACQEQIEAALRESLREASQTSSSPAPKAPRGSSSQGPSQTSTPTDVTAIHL
Chain of CDK5/p35 (Q00535 whole entry): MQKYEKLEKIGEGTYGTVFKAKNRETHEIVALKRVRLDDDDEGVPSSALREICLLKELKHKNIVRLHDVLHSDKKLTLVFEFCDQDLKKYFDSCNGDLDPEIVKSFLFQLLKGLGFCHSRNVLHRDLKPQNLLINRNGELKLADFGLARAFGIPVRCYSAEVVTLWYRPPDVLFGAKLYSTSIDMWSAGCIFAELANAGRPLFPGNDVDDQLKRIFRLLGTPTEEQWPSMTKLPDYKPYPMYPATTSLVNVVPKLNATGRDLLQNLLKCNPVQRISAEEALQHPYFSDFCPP
Chain of CDK5/p35 (Q15078 whole entry partner): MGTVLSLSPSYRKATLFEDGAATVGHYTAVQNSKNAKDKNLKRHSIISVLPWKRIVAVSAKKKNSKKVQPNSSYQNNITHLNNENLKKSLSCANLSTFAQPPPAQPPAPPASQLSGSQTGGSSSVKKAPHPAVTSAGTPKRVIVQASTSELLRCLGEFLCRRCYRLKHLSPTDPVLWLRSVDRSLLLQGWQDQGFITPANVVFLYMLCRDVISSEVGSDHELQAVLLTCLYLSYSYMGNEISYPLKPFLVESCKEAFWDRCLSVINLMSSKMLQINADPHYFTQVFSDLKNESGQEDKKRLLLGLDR
Chain of CDK5/p25 (Q00535 whole entry): as the sequence (Q00535 whole entry) above
Chain of CDK5/p25 (Q15078 99-307 partner limits assumed): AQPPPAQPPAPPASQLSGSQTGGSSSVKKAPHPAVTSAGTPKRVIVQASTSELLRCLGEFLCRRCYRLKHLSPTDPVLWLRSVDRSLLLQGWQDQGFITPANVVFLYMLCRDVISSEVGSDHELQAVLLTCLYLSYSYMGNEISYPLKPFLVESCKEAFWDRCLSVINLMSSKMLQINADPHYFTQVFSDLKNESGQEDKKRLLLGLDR
Chain of CDK1/Cyclin B1 (P06493 whole entry): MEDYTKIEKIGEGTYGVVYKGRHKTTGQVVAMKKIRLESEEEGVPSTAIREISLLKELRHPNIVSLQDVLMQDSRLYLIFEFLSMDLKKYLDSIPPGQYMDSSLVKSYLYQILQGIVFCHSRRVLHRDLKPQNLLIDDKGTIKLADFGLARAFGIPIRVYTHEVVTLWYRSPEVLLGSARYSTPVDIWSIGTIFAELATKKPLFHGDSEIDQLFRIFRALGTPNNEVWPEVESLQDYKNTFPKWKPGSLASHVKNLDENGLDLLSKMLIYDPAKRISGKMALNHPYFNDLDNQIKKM
Chain of CDK1/Cyclin B1 (P14635 whole entry partner): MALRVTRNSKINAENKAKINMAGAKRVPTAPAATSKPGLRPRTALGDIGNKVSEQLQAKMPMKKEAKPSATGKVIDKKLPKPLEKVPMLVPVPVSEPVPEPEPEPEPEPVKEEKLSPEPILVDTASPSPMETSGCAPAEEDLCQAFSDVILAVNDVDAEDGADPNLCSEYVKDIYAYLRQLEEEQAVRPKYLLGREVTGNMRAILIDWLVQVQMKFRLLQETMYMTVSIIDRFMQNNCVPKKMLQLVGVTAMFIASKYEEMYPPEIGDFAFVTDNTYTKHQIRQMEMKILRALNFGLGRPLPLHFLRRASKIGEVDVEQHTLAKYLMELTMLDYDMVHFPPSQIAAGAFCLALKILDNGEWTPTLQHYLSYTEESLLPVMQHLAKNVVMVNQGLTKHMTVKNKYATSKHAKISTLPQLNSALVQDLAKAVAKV

On to `NS(=O)(=O)Cc1cccc(Nc2ncc3cc4n(c3n2)C2(CCCCC2)CNC4=O)c1` [Compound 43, (3-((6′-oxo-7′,8′-dihydro-6′H-spiro[cyclohexane-1,9′-pyrazino[1′,2′:1,5]pyrrolo[2,3-d]pyrimidin]-2′-yl)amino)phenyl)methanesulfonamide], for which the IC50 (as a rule, the concentration that gives 50% inhibition) in [1] was more than 100000 nM; in [2] it was 99000 nM; in assay [3], more than 100000 nM; in [4], more than 100000 nM; in assay [5], 47000 nM; in assay [6], 94000 nM. Also, the IC50 in assay [7] was 99000 nM; in assay [8], more than 100000 nM; in assay [9], more than 100000 nM; in assay [10], 10000 nM.

For the compound `O=C1NCC2(CCCCC2)n2c1cc1cnc(N[C@H]3CC[C@H](N4CCOCC4)CC3)nc12` [Compound 44, 2′-(((1,4-trans)-4-morpholinocyclohexyl)amino)-7′,8′-dihydro-6′H-spiro[cyclohexane-1,9′-pyrazino[1′,2′:1,5]pyrrolo[2,3-d]pyrimidin]-6′-one], the IC50 in assay [1] turned out to be 490 nM; in [2], 170 nM; in [3], 290 nM; in assay [4], 470 nM; in assay [5], 24 nM; in [6] it was 320 nM. Besides, the IC50 in [7] was determined as 270 nM; in [8] it was 100 nM; in assay [9], 270 nM; in assay [10], 6.2 nM.

`CN(C)[C@H]1CC[C@H](Nc2ncc3cc4n(c3n2)C2(CCCCC2)CNC4=O)CC1` [Compound 45, 2′-(((1,4-trans)-4-(dimethylamino)cyclohexyl)amino)-7′,8′-dihydro-6′H-spiro[cyclohexane-1,9′-pyrazino[1′,2′:1,5]pyrrolo[2,3-d]pyrimidin]-6′-one]: the half-maximal inhibitory concentration (IC50) was 270 nM in [1]; 140 nM in [2]; 260 nM in assay [3]; 240 nM in assay [4]; 11 nM in assay [5]; 310 nM in [6]. For the same compound, the IC50 was 360 nM in assay [7], 47 nM in assay [8], 86 nM in [9] and 3.3 nM in assay [10].

On to `O=C1NCC2(CCCCC2)n2c1cc1cnc(N[C@H]3CC[C@H](N4CCCCC4)CC3)nc12` [Compound 46, 2′-(((1,4-trans)-4-(piperidin-1-yl)cyclohexyl)amino)-7′,8′-dihydro-6′H-spiro[cyclohexane-1,9′-pyrazino[1′,2′:1,5]pyrrolo[2,3-d]pyrimidin]-6′-one], for which the IC50 in [1] came out at 510 nM; in assay [2], 250 nM; in assay [3] it was 470 nM; in assay [4] it was 520 nM; in assay [5] it was 21 nM; in [6], 710 nM. In addition, the IC50 in assay [7] came out at 760 nM; in [8], 78 nM; in [9], 280 nM; in assay [10], 6.4 nM.

In the case of `O=C1NCC2(CCCCC2)n2c1cc1cnc(N[C@H]3CCCNC3)nc12` [Compound 47, (S)-2′-(piperidin-3-ylamino)-7′,8′-dihydro-6′H-spiro[cyclohexane-1,9′-pyrazino[1′,2′:1,5]pyrrolo[2,3-d]pyrimidin]-6′-one], the half-inhibitory concentration (IC50) is 170 nM in assay [1]; 350 nM in assay [2]; 550 nM in [3]; 110 nM in assay [4]; 130 nM in assay [5]; 250 nM in assay [6]. Besides, the IC50 in assay [7] turned out to be 230 nM; in [8] it was 370 nM; in assay [9], 27 nM; in [10], 2.6 nM.

With `O=C1NCC2(CCCCC2)n2c1cc1cnc(N[C@@H]3CCCNC3)nc12` [Compound 48, (R)-2′-(piperidin-3-ylamino)-7′,8′-dihydro-6′H-spiro[cyclohexane-1,9′-pyrazino[1′,2′:1,5]pyrrolo[2,3-d]pyrimidin]-6′-one], the IC50 is 510 nM in assay [1]; 390 nM in assay [2]; 1100 nM in assay [3]; 1000 nM in [4]; 51 nM in [5]; 1300 nM in [6]. In addition, the IC50 came out at 1200 nM in [7], 230 nM in [8], 330 nM in assay [9] and 9 nM in [10].

In the case of `N[C@H]1CC[C@H](Nc2ncc3cc4n(c3n2)C2(CCCCC2)CNC4=O)CC1` [Compound 49, 2′-(((1r,4r)-4-aminocyclohexyl)amino)-7′,8′-dihydro-6′H-spiro[cyclohexane-1,9′-pyrazino[1′,2′:1,5]pyrrolo[2,3-d]pyrimidin]-6′-one], the IC50 in [1] worked out at 140 nM; in assay [2], 33 nM; in assay [3] it was 72 nM; in assay [4] it was 110 nM; in assay [5] it was 6.8 nM; in [6], 160 nM. In addition, the IC50 stood at 140 nM in assay [7], 40 nM in [8], 100 nM in assay [9] and 2.2 nM in assay [10].

For `C1=NCC2(CCCCC2)n2c1cc1cnc(N[C@H]3CCCNC3)nc12` [Compound 50, (S)-N-(piperidin-3-yl)-8′H-spiro[cyclohexane-1,9′-pyrazino[1′,2′:1,5]pyrrolo[2,3-d]pyrimidin]-2′-amine], the IC50 in assay [1] turned out to be 280 nM; in [2], 280 nM; in [3], 190 nM; in assay [4], 64 nM; in assay [5] it was 310 nM; in [6], 180 nM. Moreover, the IC50 in assay [7] stood at 190 nM; in assay [8], 1100 nM; in assay [9] it was 42 nM; in assay [10], 23 nM.

Turning to `C1=NCC2(CCCCC2)n2c1cc1cnc(N[C@@H]3CCCNC3)nc12` [Compound 51, (R)-N-(piperidin-3-yl)-8′H-spiro[cyclohexane-1,9′-pyrazino[1′,2′:1,5]pyrrolo[2,3-d]pyrimidin]-2′-amine], the IC50 was 1600 nM in assay [1]; 900 nM in assay [2]; 490 nM in assay [3]; 610 nM in assay [4]; 290 nM in assay [5]; 1500 nM in assay [6]. Besides, the IC50 is 1500 nM in assay [7], 1100 nM in assay [8], 230 nM in assay [9] and 200 nM in assay [10].

In the case of `C1=NCC2(CCCCC2)n2c1cc1cnc(NC3CCOCC3)nc12` [Compound 52, N-(tetrahydro-2H-pyran-4-yl)-8′H-spiro[cyclohexane-1,9′-pyrazino[1′,2′:1,5]pyrrolo[2,3-d]pyrimidin]-2′-amine], the IC50 amounted to 78 nM in assay [1]; 16 nM in assay [2]; 8.7 nM in [3]; 24 nM in assay [4]; 67 nM in [5]; 32 nM in [6]. The IC50 in assay [7] was 31 nM; in assay [8], 250 nM; in assay [9] it was 280 nM; in assay [10], 58 nM.

Take `C[C@H]1CC[C@@H](Nc2ncc3cc4n(c3n2)C2(CCCCC2)CN=C4)CC1` [Compound 53, N-((1s,4s)-4-methylcyclohexyl)-8′H-spiro[cyclohexane-1,9′-pyrazino[1′,2′:1,5]pyrrolo[2,3-d]pyrimidin]-2′-amine]: the IC50 in assay [1] came to 1500 nM; in assay [2] it was 670 nM; in [3], 480 nM; in assay [4], 850 nM; in assay [5], 2900 nM; in assay [6], 1500 nM. The IC50 in assay [7] is 1500 nM; in assay [8] it was 9000 nM; in assay [9] it was 4600 nM; in assay [10], 890 nM.
